Results as given in patent US20140294856A1, “COMBINATION TREATMENT COMPRISING A HDAC6 INHIBITOR AND AN AKT INHIBITOR” (priority 2011, published 2014).
Where two headings read alike, the source gives them in different places. Values belong to the molecule of their own block, whether it stands above or below them.

Columns and labels:
HCT116 cells [1] = assay: Combination studies, SRB assay, combination index (CalcuSyn); type: cell-based, human
[2] = tested on: HCT116 human colon cancer xenograft; conditions: BEZ-235 alone 20 mg/kg/d
HCT116 tumours = assay: Phospho-AKT levels in HCT116 tumours; type: in vivo, mice; conditions: single injection 25 mg/kg
HCT116 cells [3] = assay: Phospho-AKT levels by western blotting; type: cell-based, human; conditions: for IC50: Homo sapiens, HCT-116
[4] = Cytotoxicity of compounds of the invention (data not shown); type: cell-based
Excerpt: HDAC-C1B also appears to be a promising drug candidate.

A2780 cells = assay: Impact of glutathione co-incubation on survival; conditions: compound 1 μM
HCT116 cells [5] = assay: Acetylated PTEN and PTEN expression; type: cell-based, human
Description: FIG. 12. HDAC-C1A treatment is associated with an increase of phopsho-AKT that can be reversed by PI3K/AKT/mTOR inhibitors. […] Similarly, Phospho-Pras 40 seems to increase following treatment with HDAC-C1A. Densitometry data could reinforce this statement (ratio between the total form and the Phospho form of Pras40 that decreases at 24 hours). […] No difference could be seen in endometrial cancer cell line, […]. C. […] E. BEZ-235 can fully reverse the increase of Phospho-AKT mediated by HDAC-C1A in HCT-116 cells. BEZ-235 and HDAC-C1A were co-incubated at the indicated time and concentrations.
FIG. 17. A. Dose and time impact of Tubastatin A on acetylated form of tubulin and histones H3 and H4 and on phospho-AKT levels that could be reversed with BEZ-235 in HCT-116 cells. […] HCT116 were immunoprecipitation with PTEN and stained with HDAC1 or HDAC6, immunoprecipitation with HDAC6 and stained with PTEN. No HDAC1 could have been detected in contrast with HDAC6. There was no effect of the different inhibitors on the different protein levels.
PTEN protein expression was not altered. In vivo, on the gene array, the mRNA levels of PTEN were not altered in HCT116 xenograft model following treatment with HDAC-C1A after 1 and 14 days when compared with vehicle treated group (FIG. 7).
We have shown that HDAC-C1A is associated with increased acetylation of α-tubulin, acetyl HSP90 and acetyl PTEN with only a minor effect on the regulation of the genes (less than 0.7% of the genes have been de-regulated after 14 days of treatment in vivo). We believe that the acetylation of PTEN, via the inhibition of HDAC6, leads to an increase of P-AKT. […] No effect of BEZ235 could be seen on the acetylated status of α-tubulin and histones H3 and H4.

MRP1 = MRP1 (Homo sapiens, UniProt P33527); assay: Impact of MRP1 on cytotoxicity, MK-571 pre-treatment in A549 cells
MRP1, sequence (P33527 whole entry): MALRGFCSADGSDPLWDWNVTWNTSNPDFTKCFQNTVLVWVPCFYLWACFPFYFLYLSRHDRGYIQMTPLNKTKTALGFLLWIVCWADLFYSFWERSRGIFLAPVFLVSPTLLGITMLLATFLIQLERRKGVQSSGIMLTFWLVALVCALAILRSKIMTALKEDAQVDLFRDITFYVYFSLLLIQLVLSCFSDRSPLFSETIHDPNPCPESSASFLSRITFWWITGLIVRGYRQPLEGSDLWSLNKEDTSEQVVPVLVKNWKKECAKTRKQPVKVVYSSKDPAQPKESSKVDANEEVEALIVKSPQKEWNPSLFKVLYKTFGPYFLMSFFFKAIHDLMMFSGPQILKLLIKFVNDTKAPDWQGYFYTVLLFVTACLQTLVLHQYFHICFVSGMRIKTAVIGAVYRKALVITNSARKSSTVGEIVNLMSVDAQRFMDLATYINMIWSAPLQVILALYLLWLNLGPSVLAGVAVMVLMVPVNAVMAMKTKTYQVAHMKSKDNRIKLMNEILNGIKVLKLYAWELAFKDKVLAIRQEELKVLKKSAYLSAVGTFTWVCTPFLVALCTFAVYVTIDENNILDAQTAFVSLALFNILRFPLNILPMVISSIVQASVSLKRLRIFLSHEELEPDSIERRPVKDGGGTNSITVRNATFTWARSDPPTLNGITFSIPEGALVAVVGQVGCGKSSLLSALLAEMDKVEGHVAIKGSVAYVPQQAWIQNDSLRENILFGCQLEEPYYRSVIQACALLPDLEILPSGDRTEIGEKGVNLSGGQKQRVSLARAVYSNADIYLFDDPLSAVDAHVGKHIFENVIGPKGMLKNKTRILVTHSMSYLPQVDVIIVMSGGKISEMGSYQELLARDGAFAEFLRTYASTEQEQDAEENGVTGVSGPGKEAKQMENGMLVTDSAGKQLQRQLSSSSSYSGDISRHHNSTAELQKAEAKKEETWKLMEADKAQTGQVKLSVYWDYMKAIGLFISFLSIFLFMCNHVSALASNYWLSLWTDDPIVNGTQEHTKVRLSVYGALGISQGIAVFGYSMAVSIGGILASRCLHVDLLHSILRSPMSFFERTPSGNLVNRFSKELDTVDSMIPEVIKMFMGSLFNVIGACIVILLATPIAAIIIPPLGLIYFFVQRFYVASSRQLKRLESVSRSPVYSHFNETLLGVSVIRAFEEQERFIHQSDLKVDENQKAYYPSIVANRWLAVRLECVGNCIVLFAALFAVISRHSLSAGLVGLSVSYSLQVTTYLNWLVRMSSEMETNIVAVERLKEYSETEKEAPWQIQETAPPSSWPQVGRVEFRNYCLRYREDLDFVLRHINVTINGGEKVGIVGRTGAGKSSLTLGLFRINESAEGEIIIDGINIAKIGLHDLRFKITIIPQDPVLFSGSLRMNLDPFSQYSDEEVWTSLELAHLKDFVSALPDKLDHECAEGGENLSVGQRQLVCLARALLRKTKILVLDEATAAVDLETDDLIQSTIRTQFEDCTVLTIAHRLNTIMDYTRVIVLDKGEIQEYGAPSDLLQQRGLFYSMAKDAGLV

HCT116 cells [6] = assay: Acetylation biomarkers by western blotting (with washout); type: cell-based, human
Description: FIG. 1. HDAC-C1A irreversible activity. A. […] inhibitory activity of HDAC-C1A was tested using HeLa nuclear extracts and compared to the negative (reversible) control HDAC-C1B. B Growth inhibitory effect of the different compounds in HCT-116 cells at indicated time and compared to growth inhibitory after 72 hours of incubation.
HSP90 protein expression was not altered (FIG. 2).

in vitro = conditions: human, Caco-2
[7] = tested on: CHO cells deficient in DNA repair; assay: Growth inhibition in cell lines deficient in DNA repair machinery; type: cell-based
A549 cells = assay: Impact of BSO (GSH depletion) on growth inhibition, SRB assay; type: cell-based; conditions: 10 μM BSO for 24 hours
ABCG2 = molecular target: T1, ABCG2 (Homo sapiens, UniProt Q9UNQ0)
T1 sequence (Q9UNQ0 1-655): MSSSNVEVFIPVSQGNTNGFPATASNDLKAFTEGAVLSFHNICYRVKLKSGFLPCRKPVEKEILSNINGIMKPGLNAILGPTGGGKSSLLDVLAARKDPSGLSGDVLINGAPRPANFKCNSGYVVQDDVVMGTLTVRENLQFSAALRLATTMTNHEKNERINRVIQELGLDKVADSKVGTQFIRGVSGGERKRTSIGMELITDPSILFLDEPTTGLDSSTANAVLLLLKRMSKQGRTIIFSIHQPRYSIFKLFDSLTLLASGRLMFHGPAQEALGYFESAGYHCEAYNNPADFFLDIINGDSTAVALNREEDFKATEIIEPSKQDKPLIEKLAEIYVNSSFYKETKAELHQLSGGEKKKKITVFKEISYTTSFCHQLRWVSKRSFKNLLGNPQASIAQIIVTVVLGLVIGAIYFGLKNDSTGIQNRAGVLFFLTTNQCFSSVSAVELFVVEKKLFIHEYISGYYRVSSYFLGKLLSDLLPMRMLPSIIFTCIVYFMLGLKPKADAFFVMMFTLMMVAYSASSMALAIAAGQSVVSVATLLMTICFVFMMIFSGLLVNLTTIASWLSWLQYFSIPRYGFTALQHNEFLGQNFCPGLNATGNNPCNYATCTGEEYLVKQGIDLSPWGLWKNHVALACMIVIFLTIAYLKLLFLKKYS

P-gp = P-gp (Homo sapiens, UniProt P08183); conditions: mouse
P-gp, sequence (P08183 whole entry): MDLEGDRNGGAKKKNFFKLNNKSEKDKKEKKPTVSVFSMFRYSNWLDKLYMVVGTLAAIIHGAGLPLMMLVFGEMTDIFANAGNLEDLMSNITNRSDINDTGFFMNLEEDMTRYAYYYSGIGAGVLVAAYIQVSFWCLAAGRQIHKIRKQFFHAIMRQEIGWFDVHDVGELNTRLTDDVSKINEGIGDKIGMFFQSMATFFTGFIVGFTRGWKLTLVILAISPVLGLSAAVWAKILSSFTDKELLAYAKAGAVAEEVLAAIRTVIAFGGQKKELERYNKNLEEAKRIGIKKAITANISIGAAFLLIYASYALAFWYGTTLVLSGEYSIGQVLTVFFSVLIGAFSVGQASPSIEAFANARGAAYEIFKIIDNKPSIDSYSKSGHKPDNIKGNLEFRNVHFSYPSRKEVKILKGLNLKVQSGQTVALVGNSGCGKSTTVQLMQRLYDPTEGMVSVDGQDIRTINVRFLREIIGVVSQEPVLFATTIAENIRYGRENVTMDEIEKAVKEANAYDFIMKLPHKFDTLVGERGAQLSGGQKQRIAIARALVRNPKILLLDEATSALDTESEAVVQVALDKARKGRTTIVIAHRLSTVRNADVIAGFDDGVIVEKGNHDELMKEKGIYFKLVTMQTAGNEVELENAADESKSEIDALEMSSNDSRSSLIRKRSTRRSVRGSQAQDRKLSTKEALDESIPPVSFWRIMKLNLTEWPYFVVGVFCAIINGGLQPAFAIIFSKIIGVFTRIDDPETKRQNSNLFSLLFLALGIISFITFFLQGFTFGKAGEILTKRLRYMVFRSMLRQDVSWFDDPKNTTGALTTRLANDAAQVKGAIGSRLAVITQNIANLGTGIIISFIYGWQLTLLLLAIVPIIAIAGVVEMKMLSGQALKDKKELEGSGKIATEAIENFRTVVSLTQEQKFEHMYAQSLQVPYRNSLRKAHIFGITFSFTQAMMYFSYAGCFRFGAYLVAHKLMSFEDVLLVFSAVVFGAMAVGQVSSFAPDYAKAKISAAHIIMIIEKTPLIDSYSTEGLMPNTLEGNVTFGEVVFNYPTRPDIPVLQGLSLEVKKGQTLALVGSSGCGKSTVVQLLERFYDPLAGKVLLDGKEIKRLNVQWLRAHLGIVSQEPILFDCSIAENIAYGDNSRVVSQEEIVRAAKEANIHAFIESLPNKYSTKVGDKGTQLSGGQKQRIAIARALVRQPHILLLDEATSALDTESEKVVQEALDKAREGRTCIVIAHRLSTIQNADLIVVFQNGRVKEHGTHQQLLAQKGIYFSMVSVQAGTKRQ

[8] = homologous recombination repair

Compound: O=c1[nH]cc(F)c(=O)[nH]1 [5FU]
combination effect with HDAC-C1A on growth inhibition (HCT116 cells [1]; HCT116, 72 hours): additive effect

Compound: CN(C)CC[C@H](CSc1ccccc1)Nc1ccc(S(=O)(=O)NC(=O)c2ccc(N3CCN(Cc4ccccc4-c4ccc(Cl)cc4)CC3)cc2)cc1[N+](=O)[O-] [ABT-737]
combination effect with HDAC-C1A on growth inhibition (HCT116 cells [1]; HCT116, 72 hours): Synergistic effect

Compound: Cn1c(=O)n(-c2ccc(C(C)(C)C#N)cc2)c2c3cc(-c4cnc5ccccc5c4)ccc3ncc21 [BEZ-235]
TGD2x [2]: 3.4 ± 1.9 days | TGI [2]: 21% | P-AKT in tumours (HCT116 tumours; 2 hours after treatment): Persistent inhibition | P-AKT in tumours (HCT116 tumours; by 30 minutes): rapid down-regulation | P-AKT in tumours (HCT116 tumours; from 6 hours post treatment): partial recovery to basal levels | combination effect with HDAC-C1A on growth inhibition (HCT116 cells [1]; HCT116, 72 hours): Synergistic effect | P-AKT levels, single agent (HCT116 cells [3]): dose dependent decrease | IC50 (HCT116 cells [3]; 4 hours treatment, read-out: IC50 for inhibition of P-AKT): 10 nM | IC50 (HCT116 cells [3]; added to Tubastatin A, read-out: IC50 for reversal of Tubastatin A-induced P-AKT): 10 nM | IC50 (HCT116 cells [3]; combined with 10 μM HDAC-C1A, read-out: IC50 for P-AKT when combined with HDAC-C1A): 50 nM | effect on acetylated status of α-tubulin and histones H3 and H4 (HCT116 cells [3]; added to Tubastatin A): No effect | reversal of the increase of Phospho-AKT mediated by HDAC-C1A (HCT116 cells [3]; co-incubated with HDAC-C1A): fully reverse

Compound: CCN(CC)c1ccc(S(=O)(=O)Nc2ccc(/C=C(C)/C=C/C(=O)NO)cc2)cc1 [HDAC-C1B]
cytotoxic potency relative to HDAC-C1A [4]: approximately 1.5 fold

Compound: COc1ccc(C2=N[C@@H](c3ccc(Cl)cc3)[C@@H](c3ccc(Cl)cc3)N2C(=O)N2CCNC(=O)C2)c(OC(C)C)c1 [Nutlin-3]
combination effect with HDAC-C1A on growth inhibition (HCT116 cells [1]; HCT116, 72 hours): additive effect

Papp A→B (in vitro): 14 ×10⁻⁶ cm/s
Compound: O=C(CCCCCCC(=O)Nc1ccccc1)NO [SAHA, suberanoyl hydroxamic acid, reference compound]
effect of GSH on cytotoxicity (A2780 cells): antagonistic effect | acetyl form of PTEN (HCT116 cells [5]; 4 h and 24 h, 1 μM and 10 μM): no effect | substrate of MRP1 (MRP1): non-substrates | acetylation markers at low concentration and early time point (HCT116 cells [6]; 1 μM and 4 hours): opposite | acetylation of histone H3, H4 and α-tubulin after washout (HCT116 cells [6]; treatment 4 hours, then washout): lost by 4 h | concentration of LY-294002 needed to synergise (HCT116 cells [1]): greater than 4 μM | combination effect with rapamycin at ED50 (HCT116 cells [1]; concentrations below 7.5 μM): antagonistic effect | effect on P-AKT (HCT116 cells [3]; 10 μM): no effect

Compound: CN1CCc2c(c3ccccc3n2Cc2ccc(C(=O)NO)cc2)C1 [Tubastatin A]
acetylated form of PTEN (HCT116 cells [5]; 24 hours of incubation): dose dependent increase | concentration of LY-294002 needed to synergise (HCT116 cells [1]): 0.1 µM | combination effect with inhibitors of the PI3K/AKT/mTOR pathway (HCT116 cells [1]; HCT116, 72 hours): synergises as well | P-AKT (HCT116 cells [3]; Tubastatin A alone): time dependent increase

Compound: CC(C)C[C@H](NC(=O)[C@H](Cc1ccccc1)NC(=O)c1cnccn1)B(O)O [bortezomib]
combination effect with HDAC-C1A on growth inhibition (HCT116 cells [1]; HCT116, 72 hours): Synergistic effect

Compound: O=C(O)CCCc1ccc(N(CCCl)CCCl)cc1 [chlorambucil, reference compound]
sensitivity (GI50 ratio) of cells deficient in XRCC3 vs proficient [7, 8]: 7.8 | sensitivity (GI50 ratio, fold) of cells deficient in XRCC2 vs proficient [7, 8]: > 100 | sensitivity (GI50 ratio, fold) of cells deficient in XRCC5 vs proficient ([7]; non homologous end joining): > 100 | sensitivity (GI50 ratio) of cells deficient in ERCC1 vs proficient ([7]; nucleotide excision repair): > 100 | impact of BSO on growth inhibition (GI50 ratio) (A549 cells): 8.5

Compound: O=C1c2c(O)ccc(O)c2C(=O)c2c(NCCNCCO)ccc(NCCNCCO)c21 [mitoxantrone]
fold resistance (GI50 ratio) MCF7-MX vs parental MCF7 (ABCG2): 120 fold | reversal of resistance by FTC in MCF7-MX cells (ABCG2): 70 fold

fold resistance (GI50 ratio) P-gp over-expressing 3T3 vs parental (P-gp): > 100 fold
Compound: CC[C@]1(O)C[C@@H]2CN(CCc3c([nH]c4ccccc34)[C@@](C(=O)OC)(c3cc4c(cc3OC)N(C)[C@H]3[C@@](O)(C(=O)OC)[C@H](OC(C)=O)[C@]5(CC)C=CCN6CC[C@]43[C@@H]65)C2)C1 [vinblastine]
